Test results reported in patent publication US10342796B2, “Acrylanilide derivative, preparation method, and applications thereof in pharmacy” (Ancureall Pharmaceutical (Shanghai) Co., Ltd., priority 2015, dated 2019).
Like-named read-outs stand apart in the source and are kept apart here.

Legend:
[1] = system: H1975 tumor cells; test: In vivo tumor growth inhibition, xenograft; parameters: species or system Bab/c nude mice; settings: Mus musculus, NCI-H1975, po, 456 h; 25 mg/kg intragastric once daily, day 19; read-out: TGI (%) H1975
From the text: (§1) Tumor xenograft models of immunodeficient mice are an effective tool to test the antitumor activity of the compound in vivo. Generally, the effectiveness of human tumor cell xenograft is positively correlated with the clinical treatment of human tumor. Bab/c immunodeficient mouse is one of the most commonly used xenograft animals with human tumor cells. In order to test whether the present compounds can inhibit the in vivo growth of the tumor cells expressing EGFR mutantion or HER2/ErbB2 overexpression, H1975, PC-9 and NCI-N87 cell lines were used in the experiments. When H1975, PC-9 and NCI-N87 cells were in growth logarithmic phase, they were digested with pancreatin. An appropriate amount of 1×RPMI1640 culture medium (serum-free) was added to stop digestion. The cells were collected to a 50 ml centrifuge tube (Corning), and centrifuged at 1700 rm for 3 min. The supernatant was discard, then the cells were suspended with 1×RPMI1640 culture medium and count the number. […] cells/mL was prepared and then placed on ice. 5˜10×10^6 (0.2 ml) cells were inoculated subcutaneously on the right side of the back of 6˜8 week old female Bab/c nude mice (about 20 g in weight). When the tumor average volume growed to 100˜200 mm^3, the mice were randomly divide into groups (3-6 mice per group), and marked by ear pierced tags and weighted. The test compounds and the reference compound (with a purity over 99% and individual impurity not higher than 0.2%) were formulated to emulsion suspension with CM (30% polyethylene glycol 400, 0.5% Tween-80 and 2.5% propylene glycol) respectively. Intragastric administration was continued once daily at a dosage of 25 mg/kg (0.1 ml/10 g mouse). The tumor was measured 3 times per week. When the average volume of the tumor in CM control group was up to 1500 mm^3 or after administration for 30 days, the experiment was ended.
(§2) The volume of tumor (V) was calculated as V=½*a*b^2 (a represents length of tumors, b represents width of tumors). Tumor growth inhibition (TGI) was calculated as: TGI (%)=100−(VT−VT0)/(VC−VC0)*100%; where VT0 and VT are the tumor volumes of the beginning and finish days of dosed groups; and VC0 and VC are the tumor volumes of the beginning and finish days for the control group, respectively.

[2] = system: PC-9 tumor cells; test: In vivo tumor growth inhibition, xenograft; parameters: species or system Bab/c nude mice; settings: Mus musculus, po, 456 h; 25 mg/kg intragastric once daily, day 19; read-out: TGI (%) PC-9
From the text: as §1, §2

[3] = system: Karpas-299 (NPM-ALK); test: Growth inhibition GI50 in vitro (CCK8/MTT, 72 h); type: cell-based; settings: Homo sapiens, Karpas-299, EGFR wt
[4] = system: A375 (EGFR wt, BRAF V600E); test: Growth inhibition GI50 in vitro (CCK8/MTT, 72 h); type: cell-based; settings: Homo sapiens, A-375
From the text: EGFR wild type cell lines: human epidermal cancer cell line A431 (EGFR WT, amplification and high expression, from Shanghai Cell Bank of Chinese Academy of Sciences and ATCC), NSCLC cell lines NCI-H460 (EGFR WT, Kras G61H and PI3KCA E545K mutants, ATCC) and NCI-H1299 (EGFR WT, ATCC), melanoma cell line A375 (EGFR WT and BRAF V600E mutant, from Shanghai Cell Bank of Chinese Academy of Sciences, ATCC), human lung cancer cell line NCI-H292 (EGFR WT, from human lung mucoepidermoid carcinoma/lymphatic metastasis, purchased from Shanghai Cell Bank of Chinese Academy of Sciences) were cultured with 1×RPMI1640 complete medium which was supplement with 10% FBS. NSCLC cell line A549 (EGFR WT and Kras G12S mutant, from Shanghai Cell Bank of Chinese Academy of Sciences) was cultured with 1×Ham'S F12K complete medium which was supplement with 10% FBS, 1% double-antibiotics and 2 mM glutamine.
(§3) The suspension cells were collected by centrifugation. The supernatant was discard and the cell pellet was resuspended and counted. Different cell concentrations (5˜10×10^4 cells/mL) were prepared according to the growth cycle of each cell line and then seeded on a 96-well plate (Corning), 100 μL/well. The cells were incubated over night at 37° C., 5% CO2. The compounds were added to the cells on the second day with 2 wells in parallel. The final concentration of organic solvent shall not exceed 1%. The cells were continually incubated for 72 h, and then subjected to MTT assay.
(§4) The present compounds and the reference compounds were dissolved with DMSO (Sigma), respectively. […] The storage concentration of compounds was 10 mM and kept at −20° C. They were diluted by 2 times or 10 times with serial dilution before using.
(§5) Dojindo CCK8 reagent kit was used as MTT assay. […] FC meter was used as microplate reader.
(§6) Adherent cell culture medium was discard and immediately replaced with fresh prepared medium which contains 10% CCK8 reagent (100 μL/well). For the suspension cells, CCK8 was directly added to 10% of the final concentration. The cells were continually incubated for 1˜4 h. When the color of control wells turned to dark yellow, the absorption value was measured at OD450 nm. The cell growth rate was calculated according to the following formula: cell growth rate (%)=100*(T−T0)/(C−T0), T=optical density of drug treatment cell well—optical density of blank control well; T0=optical density of cell well before drug treatment—optical density of blank control well; C=optical density of cell well of solvent control group—optical density of blank control well. […] The experiment was independently repeated 1˜3 times, and subject to biological statistical analysis.
(§7) Growth inhibition assay was conducted in the cell lines shown Table 14 with the different oncogene mutations. Each compound started at 1000 nM as an initial concentration and was diluted by 2 times with serial dilution to 0.03 nM.

[5] = system: SNU-16 (FGFR2 amp); test: Growth inhibition GI50 in vitro (CCK8/MTT, 72 h); type: cell-based; settings: Homo sapiens, SNU-16, EGFR wt
Description: (§8) Human NSCLC cell line NCI-H1581(ATCC) contains FGFR1 gene amplification and high expression. Human gastric cancer cell line SNU-16(ATCC) contains FGFR2 gene amplification and high expression. They were cultured with 1×RPMI1640 complete medium (10% FBS), respectively.
as §3, §4, §5, §6, §7

[6] = system: H1581 (FGFR1 amp); test: Growth inhibition GI50 in vitro (CCK8/MTT, 72 h); type: cell-based; settings: Homo sapiens, NCI-H1581, H1581, EGFR wt
Description: as §8, §3, §4, §5, §6, §7

[7] = system: H2228 (EML4-ALK); test: Growth inhibition GI50 in vitro (CCK8/MTT, 72 h); type: cell-based; settings: Homo sapiens, NCI-H2228, H2228, EGFR wt
[8] = system: HER2/ErbB2 amplified cell line N87; test: In vivo tumor growth inhibition, xenograft; parameters: species or system Bab/c nude mice; settings: Mus musculus, po, 456 h, 25 mg/kg intragastric once daily, day 19, read-out: TGI (%)
From the text: as §1, §2

[9] = A375, EGFR wt, BRAF V600E, read-out: GI50

| Structure (SMILES) | inhibition in vivo at 25 mg/kg [1] [%] | inhibition in vivo at 25 mg/kg [2] [%] | GI50 [3] [µM] | GI50 [4] [µM] | GI50 [5] [µM] | GI50 [6] [µM] | GI50 [7] [µM] | GI50 [4, 9] [µM] | inhibition in vivo at 25 mg/kg [8] [%] |
| --- | --- | --- | --- | --- | --- | --- | --- | --- | --- |
| C=CC(=O)Nc1cc(Nc2nccc(-c3cn(C)c4ccccc34)n2)c(OC)cc1N(C)CCN(C)C [AZD9291, reference compound] | 98.4 | 97.2 | > 1 | > 1 | > 1 | > 1 | > 0.5 |  |  |
| C=CC(=O)Nc1cc(Nc2nccc(Nc3cccc(Cl)c3)n2)c(OC)cc1N(C)CCN(C)C [Compound 2, N-(5-(4-(3-chloro-phenylamino)-pyrimidin-2-ylamino)-2-(2-(dimethylamino-ethyl)-methyl-amino)-4-methoxyl-phenyl)-acrylamide] |  |  | 0.5 |  | > 1 | > 1 | > 0.5 | > 1 |  |
| C=CC(=O)Nc1cc(Nc2nccc(Nc3ccc(OCc4ccccn4)c(Cl)c3)n2)c(OC)cc1N(C)CCN(C)C [Compound 18, N-(5-(4-(3-chloro-4-(pyridin-2-methoxyl)phenylamino)pyrimidin-2-ylamino)-2-((2-(dimethylamino)ethyl)(methyl)amino)-4-methoxyl-phenyl)-acrylamide] | 96.7 | 98.3 | > 1 |  | > 1 | > 1 | > 0.5 | > 1 |  |
| C=CC(=O)Nc1cc(Nc2ncc(Cl)c(Nc3ccc(OCc4ccccn4)c(Cl)c3)n2)c(OC)cc1N(C)CCN(C)C [Compound 19, N-(5-(5-chloro-4-(3-chloro-4-(pyridin-2-methoxyl)phenylamino)-pyrimidin-2-ylamino)-2-((2-(dimethylamino)ethyl)(methyl)amino)-4-methoxyl-phenyl)-acrylamide] |  |  | 0.5 |  | > 1 | > 1 | > 0.5 | > 1 |  |
| C=CC(=O)Nc1cc(Nc2nccc(-n3ccc4ccc(F)cc43)n2)c(OC)cc1N(C)CCN(C)C [Compound 63, N-(5-(4-(6-fluoro-1H-indol-1-yl)-pyrimidin-2-ylamino)-2-((2-(dimethylamino)ethyl)-methyl-amino)-4-methoxyl-phenyl)-acrylamide] | 98.3 | 98.3 |  |  |  |  |  |  | 94.7 |
| C=CC(=O)Nc1cc(Nc2nccc(-n3cnc4ccccc43)n2)c(OC)cc1N(C)CCN(C)C [Compound 106] |  |  | > 1 |  | > 1 | > 1 | > 0.5 | > 1 |  |
| C=CC(=O)Nc1cc(Nc2ncnc(Nc3cccc(F)c3)n2)c(OC)cc1N(C)CCN(C)C [Compound 114, N-(5-(4-(3-fluoro-phenylamino)-[1,3,5]triazin-2-ylamino)-2-((2-dimethylamino-ethyl)-methyl-amino)-4-methoxyl-phenyl)-acrylamide] |  |  | > 1 |  | > 1 | > 1 | > 0.5 | 0.465 |  |
| C=CC(=O)Nc1cc(Nc2ncnc(Nc3cccc(Br)c3)n2)c(OC)cc1N1CCC(N2CCCC2)CC1 [Compound 118] |  |  | 0.5 |  | > 1 | > 1 | > 0.5 | 0.465 |  |
| C=CC(=O)Nc1cc(Nc2cc(Nc3cc(OC)c(Cl)cc3Cl)ncn2)c(OC)cc1N(C)CCN(C)C [Compound 136, N-(5-(6-(2,4-dichloro-5-methoxyl-phenylamino)-pyrimidin-4-ylamino)-2-((2-dimethylamino-ethyl)-methyl-amino)-4-methoxyl-phenyl)-acrylamide] |  |  |  |  |  |  |  |  | 96.7 |
| C=CC(=O)Nc1cc(Nc2cc(Nc3ccc(F)c(Cl)c3)ncn2)c(OC)cc1N(C)CCN(C)C [Compound 140, N-(5-(6-(3-chloro-4-fluoro-phenylamino)-pyrimidin-4-ylamino)-2-((2-dimethylamino-ethyl)-methyl-amino)-4-methoxyl-phenyl)-acrylamide] | 98.4 | 97.9 | > 1 |  | > 1 | > 1 | > 0.5 | > 1 |  |
| C=CC(=O)Nc1cc(Nc2cc(Nc3ccc(F)c(Cl)c3)ncn2)c(OC)cc1N1CCN(C2CCN(C)CC2)CC1 [Compound 147, N-(5-(6-(3-chloro-4-fluoro-phenylamino)-pyrimidin-4-ylamino)-4-methoxyl-2-(4-(1-methylpiperidin-4-yl)-piperazin-1-yl)-phenyl)-acrylamide] |  |  | > 1 |  | > 1 | > 1 | > 0.5 | > 1 |  |
| C=CC(=O)Nc1cc(Nc2nccc(-n3ccc4c(OCCOC)cccc43)n2)c(OC)cc1N(C)CCN(C)C [Compound 205, N-(5-(4-(4-(2-methoxyl-ethoxyl)-1H-indol-1-yl)-pyrimidin-2-ylamino)-2-(2-(dimethylamino-ethyl)-methyl-amino)-4-methoxyl-phenyl)-acrylamide] | 99.5 | 96.5 |  |  |  |  |  |  |  |
| C=CC(=O)Nc1cc(Nc2cc(Nc3ccc(OCC4CCOCC4)c(Cl)c3)ncn2)c(OC)cc1N(C)CCN(C)C [Compound 216, N-(5-(6-(3-chloro-4-(tetrahydropyran-4-yl-methoxyl)-phenylamino)-pyrimidin-4-ylamino)-2-((2-dimethylaminoethyl)-methyl-amino)-4-methoxyphenyl)-acrylamide] |  |  |  |  |  |  |  |  | 97.6 |
| C=CC(=O)Nc1cc(Nc2cc(Nc3cc(F)c(OC)c(Cl)c3)ncn2)c(OC)cc1N(C)CCN(C)C [Compound 236, N-(5-(6-(3-chloro-5-fluoro-4-methoxyphenylamino)-pyrimidin-4-yl-amino)-2-((2-dimethylamino-ethyl)-methyl-amino)-4-methoxyl-phenyl)-acrylamide] |  |  |  |  |  |  |  |  | 97.5 |
